Tested on: 349418-098-R tumor spheroid viability
Experiment: Anticancer human tumor 349418-098-R patient-derived lung adenocarcinoma cell line growth inhibition
Conditions: spheroids with HUVEC and MSC; for IC50: curve of first compound; for viability, T/C: stronger effect = lower value
How it was run: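 Single agents and combinations were tested on spheroids built from tumor cells plus HUVEC and hMSC, at half-log dilutions starting at or near clinical Cmax, else 10 microM; final DMSO 0.25% (v/v).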

[1] = second compound 30 pM, first compound 0.0316 µM
[2] = second compound 30 pM, first compound 0.1 µM
[3] = second compound 30 pM, first compound 0.316 µM
[4] = second compound 30 pM, first compound 1 µM
[5] = second compound 30 pM, first compound 3.16 µM
[6] = second compound 30 pM, first compound 10 µM
[7] = second compound 94.9 pM, first compound 0.0316 µM
[8] = second compound 94.9 pM, first compound 0.1 µM
[9] = second compound 94.9 pM, first compound 0.316 µM
[10] = second compound 94.9 pM, first compound 1 µM
[11] = second compound 94.9 pM, first compound 3.16 µM
[12] = second compound 94.9 pM, first compound 10 µM
[13] = second compound 0.0003 µM, first compound 0.0316 µM
[14] = second compound 0.0003 µM, first compound 0.1 µM
[15] = second compound 0.0003 µM, first compound 0.316 µM
[16] = second compound 0.0003 µM, first compound 1 µM
[17] = second compound 0.0003 µM, first compound 3.16 µM
[18] = second compound 0.0003 µM, first compound 10 µM
[19] = second compound 0.000949 µM, first compound 0.0316 µM
[20] = second compound 0.000949 µM, first compound 0.1 µM
[21] = second compound 0.000949 µM, first compound 0.316 µM
[22] = second compound 0.000949 µM, first compound 1 µM
[23] = second compound 0.000949 µM, first compound 3.16 µM
[24] = second compound 0.000949 µM, first compound 10 µM
[25] = second compound 0.003 µM, first compound 0.0316 µM
[26] = second compound 0.003 µM, first compound 0.1 µM
[27] = second compound 0.003 µM, first compound 0.316 µM
[28] = second compound 0.003 µM, first compound 1 µM
[29] = second compound 0.003 µM, first compound 3.16 µM
[30] = second compound 0.003 µM, first compound 10 µM
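Further: spheroids exposed to compound for 7 days before measurement.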
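Wherever viability, T/C is given: percent of vehicle control viability with 100% = DMSO-treated spheroids.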

CC(C)n1c(=O)n(C)c2cnc3cc(F)c(-c4ccc(OCCCN5CCCCC5)nc4)cc3c21 + COc1cc2c(cc1O)CCNC21CSC2c3c(OC(C)=O)c(C)c4c(c3C(COC1=O)N1C(O)C3Cc5cc(C)c(OC)c(O)c5C(C21)N3C)OCO4
IC50 (second compound 30 pM): > 10 µM | IC50 (second compound 94.9 pM): > 10 µM | IC50 (second compound 0.0003 µM): < 0.0316 µM | IC50 (second compound 0.000949 µM): < 0.0316 µM | IC50 (second compound 0.003 µM): < 0.0316 µM | viability, T/C [1]: 91.8% | viability, T/C [2]: 97.4% | viability, T/C [3]: 106% | viability, T/C [4]: 99.6% | viability, T/C [5]: 98.4% | viability, T/C [6]: 77.7% | viability, T/C [7]: 91.5% | viability, T/C [8]: 85% | viability, T/C [9]: 93% | viability, T/C [10]: 92.7% | viability, T/C [11]: 94.6% | viability, T/C [12]: 60.2% | viability, T/C [13]: 40.2% | viability, T/C [14]: 37% | viability, T/C [15]: 31.7% | viability, T/C [16]: 32.1% | viability, T/C [17]: 45.2% | viability, T/C [18]: 22.1% | viability, T/C [19]: 0.4% | viability, T/C [20]: 0.3% | viability, T/C [21]: 0.49% | viability, T/C [22]: 1.21% | viability, T/C [23]: 1.2% | viability, T/C [24]: 0.62% | viability, T/C [25]: 1.38% | viability, T/C [26]: 1.4% | viability, T/C [27]: 1.38% | viability, T/C [28]: 1.37% | viability, T/C [29]: 1.41% | viability, T/C [30]: 1.51%

COc1ccc([C@@H](O)c2cc(-c3ncnc4cc(N5CCOCC5)ccc34)c(F)cc2Cl)nn1 + COc1cc2c(cc1O)CCNC21CSC2c3c(OC(C)=O)c(C)c4c(c3C(COC1=O)N1C(O)C3Cc5cc(C)c(OC)c(O)c5C(C21)N3C)OCO4
IC50 (second compound 30 pM): 5.96 µM | IC50 (second compound 94.9 pM): 3.85 µM | IC50 (second compound 0.0003 µM): 0.399 µM | IC50 (second compound 0.000949 µM): < 0.0316 µM | IC50 (second compound 0.003 µM): < 0.0316 µM | viability, T/C [1]: 97.2% | viability, T/C [2]: 92.9% | viability, T/C [3]: 102% | viability, T/C [4]: 98.6% | viability, T/C [5]: 83.3% | viability, T/C [6]: 22.5% | viability, T/C [7]: 105% | viability, T/C [8]: 101% | viability, T/C [9]: 94.2% | viability, T/C [10]: 94.3% | viability, T/C [11]: 56.3% | viability, T/C [12]: 18.3% | viability, T/C [13]: 84.1% | viability, T/C [14]: 90.8% | viability, T/C [15]: 60% | viability, T/C [16]: 9.13% | viability, T/C [17]: 2.15% | viability, T/C [18]: 0.54% | viability, T/C [19]: 0.44% | viability, T/C [20]: 0.79% | viability, T/C [21]: 0.24% | viability, T/C [22]: 0.35% | viability, T/C [23]: 1.2% | viability, T/C [24]: 2.19% | viability, T/C [25]: 1.61% | viability, T/C [26]: 2.06% | viability, T/C [27]: 2.65% | viability, T/C [28]: 3.97% | viability, T/C [29]: 4.18% | viability, T/C [30]: 4.47%

O=C(c1cc(Cc2n[nH]c(=O)c3ccccc23)ccc1F)N1CCN(C(=O)C2CC2)CC1 + Cn1nnc2c(C(N)=O)ncn2c1=O
IC50 (second compound 1 µM): > 30 µM | IC50 (second compound 3.16 µM): > 30 µM | IC50 (second compound 10 µM): 23.2 µM | IC50 (second compound 31.6 µM): 7.27 µM | IC50 (second compound 100 µM): 1.81 µM | viability, T/C (second compound 1 µM, first compound 0.0949 µM): 98.5% | viability, T/C (second compound 1 µM, first compound 0.3 µM): 98.9% | viability, T/C (second compound 1 µM, first compound 0.949 µM): 103% | viability, T/C (second compound 1 µM, first compound 3 µM): 98.7% | viability, T/C (second compound 1 µM, first compound 9.49 µM): 79.9% | viability, T/C (second compound 1 µM, first compound 30 µM): 57% | viability, T/C (second compound 3.16 µM, first compound 0.0949 µM): 99.5% | viability, T/C (second compound 3.16 µM, first compound 0.3 µM): 100% | viability, T/C (second compound 3.16 µM, first compound 0.949 µM): 99% | viability, T/C (second compound 3.16 µM, first compound 3 µM): 99% | viability, T/C (second compound 3.16 µM, first compound 9.49 µM): 89.1% | viability, T/C (second compound 3.16 µM, first compound 30 µM): 60.3% | viability, T/C (second compound 10 µM, first compound 0.0949 µM): 103% | viability, T/C (second compound 10 µM, first compound 0.3 µM): 103% | viability, T/C (second compound 10 µM, first compound 0.949 µM): 102% | viability, T/C (second compound 10 µM, first compound 3 µM): 96.8% | viability, T/C (second compound 10 µM, first compound 9.49 µM): 81.9% | viability, T/C (second compound 10 µM, first compound 30 µM): 40.5% | viability, T/C (second compound 31.6 µM, first compound 0.0949 µM): 102% | viability, T/C (second compound 31.6 µM, first compound 0.3 µM): 98.5% | viability, T/C (second compound 31.6 µM, first compound 0.949 µM): 100% | viability, T/C (second compound 31.6 µM, first compound 3 µM): 94.7% | viability, T/C (second compound 31.6 µM, first compound 9.49 µM): 36.6% | viability, T/C (second compound 31.6 µM, first compound 30 µM): 16% | viability, T/C (second compound 100 µM, first compound 0.0949 µM): 96.5% | viability, T/C (second compound 100 µM, first compound 0.3 µM): 98% | viability, T/C (second compound 100 µM, first compound 0.949 µM): 78.2% | viability, T/C (second compound 100 µM, first compound 3 µM): 27.9% | viability, T/C (second compound 100 µM, first compound 9.49 µM): 10.2% | viability, T/C (second compound 100 µM, first compound 30 µM): 9.95%

Reference: PubChem BioAssay AID1845197 (Molecular Pharmacology Branch, DTP, NCI, 2023)
